Molecular target: T1, human iNOS (Homo sapiens, UniProt P35228)
T1 construct: expressed in transfected cells; host or cells: HEK293
Assay: DAN assay of nitric oxide production (hiNOS)
Assay type: cell-based
Conditions: enzyme expressed in HEK293 cells transiently transfected with human iNOS
Outline: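 Human iNOS transiently expressed in HEK293 cells; NO production quantified as nitrite via 2,3-diaminonaphthalene reaction forming fluorescent naphthotriazole.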

T1 sequence (P35228 whole entry): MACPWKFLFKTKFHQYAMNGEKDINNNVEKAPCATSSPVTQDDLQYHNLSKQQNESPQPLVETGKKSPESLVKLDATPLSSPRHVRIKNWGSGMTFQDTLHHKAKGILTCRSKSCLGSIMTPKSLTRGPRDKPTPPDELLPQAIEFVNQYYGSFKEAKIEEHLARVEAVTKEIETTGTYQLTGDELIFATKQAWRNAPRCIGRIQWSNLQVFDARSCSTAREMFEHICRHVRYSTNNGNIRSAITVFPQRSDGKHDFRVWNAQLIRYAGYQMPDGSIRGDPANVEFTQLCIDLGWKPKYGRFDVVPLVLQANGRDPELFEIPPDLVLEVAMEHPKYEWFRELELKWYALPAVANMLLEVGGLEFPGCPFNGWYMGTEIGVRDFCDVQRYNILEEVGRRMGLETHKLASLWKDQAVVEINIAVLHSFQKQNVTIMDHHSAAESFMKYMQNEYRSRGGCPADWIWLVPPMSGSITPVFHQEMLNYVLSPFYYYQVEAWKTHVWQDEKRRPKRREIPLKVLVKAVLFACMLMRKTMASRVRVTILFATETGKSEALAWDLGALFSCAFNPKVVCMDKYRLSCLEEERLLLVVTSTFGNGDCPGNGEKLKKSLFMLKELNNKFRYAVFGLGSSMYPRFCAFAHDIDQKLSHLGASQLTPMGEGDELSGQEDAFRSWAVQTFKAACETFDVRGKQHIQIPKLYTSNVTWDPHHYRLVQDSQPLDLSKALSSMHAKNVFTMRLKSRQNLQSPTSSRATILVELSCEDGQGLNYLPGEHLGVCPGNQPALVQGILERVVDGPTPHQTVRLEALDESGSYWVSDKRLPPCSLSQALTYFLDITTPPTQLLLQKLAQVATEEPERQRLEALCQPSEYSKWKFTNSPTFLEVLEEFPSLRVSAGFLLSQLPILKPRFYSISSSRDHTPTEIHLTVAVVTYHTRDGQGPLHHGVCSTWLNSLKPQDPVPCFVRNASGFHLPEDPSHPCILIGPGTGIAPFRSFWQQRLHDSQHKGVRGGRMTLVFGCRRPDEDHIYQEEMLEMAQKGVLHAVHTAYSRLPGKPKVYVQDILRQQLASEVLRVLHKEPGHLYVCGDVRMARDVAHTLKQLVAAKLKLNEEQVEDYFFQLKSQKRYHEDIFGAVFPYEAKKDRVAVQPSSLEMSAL

`Cc1ccccc1C(=O)N(Cc1cc(=O)[nH]c2c(F)cccc12)c1cccc(Cl)c1` [Example 57, N-(3-Chlorophenyl)-N-((8-fluoro-2-oxo-1,2-dihydroquinolin-4-yl)methyl)-2-methylbenzamide] and `Cc1cccnc1C(=O)N(Cc1cc(=O)[nH]c2c(F)cccc12)c1cccc(Cl)c1` [Example 73, N-(3-Chlorophenyl)-N-((8-fluoro-2-oxo-1,2-dihydroquinolin-4-yl)methyl)-3-methylpicolinamide] cannot be ordered by EC50: greater than 5 µM for the first, greater than 5 µM for the second.

`Cc1ncsc1C(=O)N(Cc1cc(=O)[nH]c2c(F)cccc12)c1cccc(C#N)c1` [Example 95, N-(3-Cyanophenyl)-N-((8-fluoro-2-oxo-1,2-dihydroquinolin-4-yl)methyl)-4-methylthiazole-5-carboxamide] and `Cc1ncsc1C(=O)N(Cc1cc(=O)[nH]c2c(F)cccc12)c1ccc(F)c(Cl)c1` [Example 85, N-(3-Chloro-4-fluorophenyl)-N-((8-fluoro-2-oxo-1,2-dihydroquinolin-4-yl)methyl)-4-methylthiazole-5-carboxamide] cannot be ordered by EC50: no more than 5 µM for the first, no more than 5 µM for the second.

`O=C(c1ccncc1)N(Cc1cc(=O)[nH]c2c(F)cccc12)c1cccc(Cl)c1` [Example 69, N-(3-Chlorophenyl)-N-((8-fluoro-2-oxo-1,2-dihydroquinolin-4-yl)methyl)isonicotinamide] and `O=C(c1ccc(F)cc1)N(Cc1cc(=O)[nH]c2c(F)cccc12)c1cccc(Cl)c1` [Example 56, N-(3-Chlorophenyl)-4-fluoro-N-((8-fluoro-2-oxo-1,2-dihydroquinolin-4-yl)methyl)benzamide] cannot be ordered by EC50: greater than 5 µM for the first, greater than 5 µM for the second.

`O=C(c1cnccn1)N(Cc1cc(=O)[nH]c2ccccc12)c1ccccc1` [Example 36, N-((2-Oxo-1,2-dihydroquinolin-4-yl)methyl)-N-phenylpyrazine-2-carboxamide] and `Cc1ncccc1C(=O)N(Cc1cc(=O)[nH]c2ccccc12)c1ccccc1` [Example 37, 2-Methyl-N-((2-oxo-1,2-dihydroquinolin-4-yl)methyl)-N-phenylnicotinamide] cannot be ordered by EC50: greater than 5 µM for the first, no more than 5 µM for the second.

`O=c1cc(Cn2cnc(-c3ccccc3)c2)c2ccc(F)c(F)c2[nH]1` [Example 260, 7,8-Difluoro-4-((4-phenyl-1H-imidazol-1-yl)methyl)quinolin-2(1H)-one] and `CN(C)c1nc2ccccc2n1Cc1cc(=O)[nH]c2c(F)c(F)ccc12` [Example 201, 4-((2-(Dimethylamino)-1H-benzo[d]imidazol-1-yl)methyl)-7,8-difluoroquinolin-2(1H)-one] cannot be ordered by EC50: greater than 5 µM for the first, greater than 5 µM for the second.

`O=C(c1ccoc1)N(Cc1cc(=O)[nH]c2ccccc12)c1ccccc1` [Example 26, N-((2-Oxo-1,2-dihydroquinolin-4-yl)methyl)-N-phenylfuran-3-carboxamide] and `Cc1ccc2[nH]c(=O)cc(CN(C(=O)c3ccco3)c3ccccc3)c2c1` [Example 21, N-((6-Methyl-2-oxo-1,2-dihydroquinolin-4-yl)methyl)-N-phenylfuran-2-carboxamide] cannot be ordered by EC50: greater than 5 µM for the first, no more than 5 µM for the second.

`Cc1ncsc1C(=O)N(Cc1cc2cccc(F)c2[nH]c1=O)c1cccc(Cl)c1` [Example 171, N-(3-Chlorophenyl)-N-((8-fluoro-2-oxy-1,2-dihydroquinolin-3-yl)methyl)-4-methylthiazole-5-carboxamide] and `Cc1ncsc1C(=O)N(Cc1cc(=O)[nH]c2c(Br)ccc(F)c12)c1cccc(Cl)c1` [Example 107, N-((8-Bromo-5-fluoro-2-oxo-1,2-dihydroquinolin-4-yl)methyl)-N-(3-chlorophenyl)-4-methylthiazole-5-carboxamide] cannot be ordered by EC50: greater than 5 µM for the first, greater than 5 µM for the second.

`CC(C)c1nc2ccn(Cc3cc(=O)[nH]c4c(F)c(F)ccc34)cc-2n1` [Example 230, 7,8-Difluoro-4-((2-isopropyl-5H-imidazo[4,5-c]pyridin-5-yl)methyl)quinolin-2(1H)-one] and `CC(C)CCc1nc2ccccc2n1Cc1cc(=O)[nH]c2c(F)c(F)ccc12` [Example 211, 7,8-Difluoro-4-((2-isopentyl-1H-benzo[d]imidazol-1-yl)methyl)quinolin-2(1H)-one] cannot be ordered by EC50: greater than 5 µM for the first, no more than 5 µM for the second.

`O=c1cc(CN(c2cccc(Cl)c2)S(=O)(=O)c2cccnc2)c2ccc(F)c(F)c2[nH]1` [Example 261, N-(3-chlorophenyl)-N-((7,8-difluoro-2-oxo-1,2-dihydroquinolin-4-yl)methyl)pyridine-3-sulfonamide] and `CC(C)S(=O)(=O)N(Cc1cc(=O)[nH]c2c(F)c(F)ccc12)c1cccc(Cl)c1` [Example 188, N-(3-Chlorophenyl)-N-((7,8-difluoro-2-oxo-1,2-dihydroquinolin-4-yl)methyl)propane-2-sulfonamide] cannot be ordered by EC50: no more than 5 µM for the first, no more than 5 µM for the second.

`Cc1ncsc1C(=O)N(Cc1cc(=O)[nH]c2c(F)c(F)ccc12)C(C)C` [Example 185] and `Cc1cccc(N(Cc2cc(=O)[nH]c3c(F)c(F)ccc23)C(=O)c2scnc2C)c1` [Example 94, N-(3-Methylphenyl)-N-((7,8-fluoro-2-oxo-1,2-dihydroquinolin-4-yl)methyl)-4-methylthiazole-5-carboxamide] cannot be ordered by EC50: greater than 5 µM for the first, no more than 5 µM for the second.

`COc1cccc(N(Cc2cc(=O)[nH]c3c(F)c(F)ccc23)C(=O)c2scnc2C)c1` [Example 180, N-(3-Methoxylphenyl)-N-((7,8-fluoro-2-oxo-1,2-dihydroquinolin-4-yl)methyl)-4-methylthiazole-5-carboxamide] and `Cc1ncsc1C(=O)N(Cc1cc(=O)[nH]c2c(F)c(F)ccc12)c1cc(Cl)ccc1F` [Example 88, N-(3-Chloro-6-fluorophenyl)-N-((7,8-fluoro-2-oxo-1,2-dihydroquinolin-4-yl)methyl)-4-methylthiazole-5-carboxamide] cannot be ordered by EC50: no more than 5 µM for the first, no more than 5 µM for the second.

`CCC(CC)c1nc2ccccc2n1Cc1cc(=O)[nH]c2c(F)c(F)ccc12` [Example 217, 7,8-Difluoro-4-((2-(pentan-3-yl)-1H-benzo[d]imidazol-1-yl)methyl)quinolin-2(1H)-one] and `CC(C)(C)Cc1nc2ccccc2n1Cc1cc(=O)[nH]c2c(F)c(F)ccc12` [Example 237, 7,8-Difluoro-4-((2-neopentyl-1H-benzo[d]imidazol-1-yl)methyl)quinolin-2(1H)-one] cannot be ordered by EC50: no more than 5 µM for the first, greater than 5 µM for the second.

`O=c1cc(Cn2c(-c3ccccc3C(F)(F)F)nc3ccccc32)c2ccc(F)c(F)c2[nH]1` [Example 245, 7,8-Difluoro-4-((2-(2-(trifluoromethyl)phenyl)-1H-benzo[d]imidazol-1-yl)methyl)quinolin-2(1H)-one] and `Cc1ccncc1-c1nc2ccccc2n1Cc1cc(=O)[nH]c2c(F)c(F)ccc12` [Example 121, 7,8-Difluoro-4-((2-(4-methylpyridin-3-yl)-1H-benzo[d]imidazol-1-yl)methyl)quinolin-2(1H)-one] cannot be ordered by EC50: no more than 5 µM for the first, greater than 5 µM for the second.

`Cc1ncsc1C(=O)N(Cc1cc(=O)[nH]c2c(F)c(F)ccc12)c1cccc2ccccc12` [Example 179, N-(1-Naphthalene)-N-((7,8-fluoro-2-oxo-1,2-dihydroquinolin-4-yl)methyl)-4-methylthiazole-5-carboxamide] and `O=C(c1cccc2ccccc12)N(Cc1cc(=O)[nH]c2c(F)cccc12)c1cccc(Cl)c1` [Example 82, N-(3-Chlorophenyl)-N-((8-fluoro-2-oxo-1,2-dihydroquinolin-4-yl)methyl)-1-naphthamide] cannot be ordered by EC50: no more than 5 µM for the first, greater than 5 µM for the second.

`CN(Cc1cc(=O)[nH]c2ccccc12)C(=O)c1ccco1` [Example 8, N-Methyl-N-[(2-oxo-1,2-dihydroquinolin-4-yl)methyl]-2-furamide] and `O=C(c1ccco1)N(Cc1cc(=O)[nH]c2c(F)cccc12)c1ccccc1` [Example 17, N-((8-Fluoro-2-oxo-1,2-dihydroquinolin-4-yl)methyl)-N-phenylfuran-2-carboxamide] cannot be ordered by EC50: no more than 5 µM for the first, greater than 5 µM for the second.

`Cc1nc(N(C)C)sc1C(=O)N(Cc1cc(=O)[nH]c2ccccc12)c1ccccc1` [Example 100, 2-(Dimethylamino)-4-methyl-N-((2-oxo-1,2-dihydroquinolin-4-yl)methyl)-N-phenylthiazole-5-carboxamide] and `N#Cc1ccc(C(=O)N(Cc2cc(=O)[nH]c3c(F)cccc23)c2cccc(Cl)c2)cc1` [Example 66, N-(3-Chlorophenyl)-4-cyano-N-((8-fluoro-2-oxo-1,2-dihydroquinolin-4-yl)methyl)benzamide] cannot be ordered by EC50: no more than 5 µM for the first, greater than 5 µM for the second.

`Cc1ncsc1C(=O)N(Cc1cc2cccc(F)c2[nH]c1=O)c1ccc(N2CCCCC2)cc1` [Example 174, N-((8-Fluoro-2-oxo-1,2-dihydroquinolin-3-yl)methyl)-4-methyl-N-(piperidin-1-yl)phenylthiazole-5-carboxamide] and `O=c1cc(Cn2c(C3CCCCC3)nc3ccccc32)c2ccc(F)c(F)c2[nH]1` [Example 204, 4-((2-Cyclohexyl-1H-benzo[d]imidazol-1-yl)methyl)-7,8-difluoroquinolin-2(1H)-one] cannot be ordered by EC50: greater than 5 µM for the first, greater than 5 µM for the second.

`CC=C(C)c1nc2ccccc2n1Cc1cc(=O)[nH]c2c(F)c(F)ccc12` (single isomer, unassigned) [Example 210, (E or Z)-4-((2-(But-2-en-2-yl)-1H-benzo[d]imidazol-1-yl)methyl)-7,8-difluoroquinolin-2(1H)-one] and `CC(C)(C)OC(=O)N1CCC(c2nc3ccccc3n2Cc2cc(=O)[nH]c3c(F)c(F)ccc23)CC1` [Example 205, tert-Butyl 4-(1-((7,8-difluoro-2-oxo-1,2-dihydroquinolin-4-yl)methyl)-1H-benzo[d]imidazol-2-yl)piperidine-1-carboxylate] cannot be ordered by EC50: no more than 5 µM for the first, greater than 5 µM for the second.

`Cc1nc(C)c(S(=O)(=O)N(Cc2cc(=O)[nH]c3c(F)c(F)ccc23)c2cccc(Cl)c2)s1` [Example 189, N-(3-Chlorophenyl)-N-((7,8-difluoro-2-oxo-1,2-dihydroquinolin-4-yl)methyl)-2,4-dimethylthiazole-5-sulfonamide] and `Cc1nc(C)n(Cc2cc(=O)[nH]c3c(F)c(F)ccc23)c1C` [Example 256, 7,8-Difluoro-4((2,4,5-trimethyl-1H-imidazol-1-yl)methyl)quinolin-2(1H)-one] cannot be ordered by EC50: no more than 5 µM for the first, greater than 5 µM for the second.

With `O=c1cc(Cn2c(CCC3CCCCC3)nc3ccccc32)c2ccc(F)c(F)c2[nH]1` [Example 213, 4-((2-(2-Cyclohexylethyl)-1H-benzo[d]imidazol-1-yl)methyl)-7,8-difluoroquinolin-2(1H)-one] the EC50 was greater than 5 µM.
